Laboratory results: paper doi:10.1101/819920v2 (biorxiv, 2020)

Biological target: YegI (Escherichia coli, UniProt Q8X7J8)
Assay: biochemical

Chain of YegI (Q8X7J8 whole entry): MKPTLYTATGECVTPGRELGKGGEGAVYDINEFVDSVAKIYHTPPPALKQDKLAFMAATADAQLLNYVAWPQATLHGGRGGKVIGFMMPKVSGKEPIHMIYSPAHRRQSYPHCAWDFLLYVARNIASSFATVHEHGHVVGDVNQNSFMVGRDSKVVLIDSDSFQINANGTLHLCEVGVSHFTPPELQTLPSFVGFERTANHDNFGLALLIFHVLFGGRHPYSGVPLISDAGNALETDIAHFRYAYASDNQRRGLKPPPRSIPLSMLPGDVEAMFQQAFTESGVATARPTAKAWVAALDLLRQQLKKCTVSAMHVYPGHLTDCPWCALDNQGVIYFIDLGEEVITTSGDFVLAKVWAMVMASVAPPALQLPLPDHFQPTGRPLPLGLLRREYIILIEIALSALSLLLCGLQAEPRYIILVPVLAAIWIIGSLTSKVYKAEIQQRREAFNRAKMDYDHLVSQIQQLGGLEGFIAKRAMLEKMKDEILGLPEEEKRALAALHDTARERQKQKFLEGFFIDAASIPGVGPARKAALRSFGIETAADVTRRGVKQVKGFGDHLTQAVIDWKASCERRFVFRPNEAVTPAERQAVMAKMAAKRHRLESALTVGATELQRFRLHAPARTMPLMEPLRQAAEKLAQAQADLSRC

`CN[C@@H]1C[C@H]2O[C@@](C)([C@@H]1OC)n1c3ccccc3c3c4c(c5c6ccccc6n2c5c31)C(=O)NC4` [staurosporine] gave an IC50 of roughly 50 µM.
